Measurements from patent publication US11111249B2, “Heteroaryl-pyrazole derivative, and preparation method therefor and medical application thereof” (Jiangsu Hengrui Medicine Co., Ltd., priority 2017, dated 2021).

Legend:
CYP3A4 = target: T1, CYP3A4 (Homo sapiens, UniProt P08684); test: Inhibition of the midazolam metabolic site on human liver microsome CYP3A4; assay type: in vitro ADME; details: human liver microsomes, midazolam substrate, 30 minutes
T1 construct: Human liver microsomes (Corning Gentest); tissue Corning Gentest; host or cells: human liver microsomes
T1 sequence (P08684 whole entry): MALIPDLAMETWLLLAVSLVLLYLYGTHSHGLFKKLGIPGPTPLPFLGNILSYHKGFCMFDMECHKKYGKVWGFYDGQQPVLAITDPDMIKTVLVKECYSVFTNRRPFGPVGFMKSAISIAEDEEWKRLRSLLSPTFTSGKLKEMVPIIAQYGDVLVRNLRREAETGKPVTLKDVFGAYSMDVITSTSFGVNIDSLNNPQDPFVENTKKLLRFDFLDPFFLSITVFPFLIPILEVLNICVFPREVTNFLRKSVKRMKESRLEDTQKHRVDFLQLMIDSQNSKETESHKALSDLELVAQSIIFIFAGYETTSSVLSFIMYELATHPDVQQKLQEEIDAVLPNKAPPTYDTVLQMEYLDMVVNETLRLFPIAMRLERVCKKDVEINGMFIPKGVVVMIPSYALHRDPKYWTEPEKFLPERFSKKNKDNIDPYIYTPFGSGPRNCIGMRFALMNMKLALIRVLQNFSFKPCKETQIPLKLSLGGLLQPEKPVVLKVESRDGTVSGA
Protocol: The enzymatic activity of the compound of the present application against the Midazolam metabolite site on human liver microsome CYP3A4 was determined by the following experimental method:
CYP probe substrate (15 μM Midazolam, SIGMA UC429) and positive control inhibitor (Ketoconazole, SIGMA K1003).
100 mM PBS buffer was configured, and 2.5 mg/mL microsome solution and 5 mM NADPH solution were prepared with this buffer, and the 5× concentration compound working solution was diluted with PBS (150, 50, 15, 5, 1.5, 0.15, 0.015, 0 μM). The 5× concentration of Ketoconazole working solution (150, 50, 15, 5, 1.5, 0.15, 0.015, 0 μM) was diluted with PBS. Midazolam working solution was diluted to a concentration of 15 μM with PBS.
20 μL each of 2.5 mg/mL microsome solution, 15 μM Midazolam working solution, MgCl2 solution and compound working solution (150, 50, 15, 5, 1.5, 0.15, 0.015, 0 μM, each concentration was setted differently reaction system) were taken and mixed evenly. The compound was replaced with the same concentration of Ketoconazole at the positive control group. At the same time, 5 mM NADPH solution was pre-incubated for 5 minutes at 37° C. After 5 minutes, 20 μL NADPH were added into the wells, and the reaction was started and incubated for 30 minutes. All samples were incubated for two samples. […]

hERG potassium channels = target: T2, hERG potassium channels (Homo sapiens, UniProt Q12809); test: Blocking effect on hERG potassium current, automatic patch-clamp, HEK293-hERG stable cell line; assay type: cell-based
T2 construct: expressed in transfected cells
T2 sequence (Q12809 whole entry): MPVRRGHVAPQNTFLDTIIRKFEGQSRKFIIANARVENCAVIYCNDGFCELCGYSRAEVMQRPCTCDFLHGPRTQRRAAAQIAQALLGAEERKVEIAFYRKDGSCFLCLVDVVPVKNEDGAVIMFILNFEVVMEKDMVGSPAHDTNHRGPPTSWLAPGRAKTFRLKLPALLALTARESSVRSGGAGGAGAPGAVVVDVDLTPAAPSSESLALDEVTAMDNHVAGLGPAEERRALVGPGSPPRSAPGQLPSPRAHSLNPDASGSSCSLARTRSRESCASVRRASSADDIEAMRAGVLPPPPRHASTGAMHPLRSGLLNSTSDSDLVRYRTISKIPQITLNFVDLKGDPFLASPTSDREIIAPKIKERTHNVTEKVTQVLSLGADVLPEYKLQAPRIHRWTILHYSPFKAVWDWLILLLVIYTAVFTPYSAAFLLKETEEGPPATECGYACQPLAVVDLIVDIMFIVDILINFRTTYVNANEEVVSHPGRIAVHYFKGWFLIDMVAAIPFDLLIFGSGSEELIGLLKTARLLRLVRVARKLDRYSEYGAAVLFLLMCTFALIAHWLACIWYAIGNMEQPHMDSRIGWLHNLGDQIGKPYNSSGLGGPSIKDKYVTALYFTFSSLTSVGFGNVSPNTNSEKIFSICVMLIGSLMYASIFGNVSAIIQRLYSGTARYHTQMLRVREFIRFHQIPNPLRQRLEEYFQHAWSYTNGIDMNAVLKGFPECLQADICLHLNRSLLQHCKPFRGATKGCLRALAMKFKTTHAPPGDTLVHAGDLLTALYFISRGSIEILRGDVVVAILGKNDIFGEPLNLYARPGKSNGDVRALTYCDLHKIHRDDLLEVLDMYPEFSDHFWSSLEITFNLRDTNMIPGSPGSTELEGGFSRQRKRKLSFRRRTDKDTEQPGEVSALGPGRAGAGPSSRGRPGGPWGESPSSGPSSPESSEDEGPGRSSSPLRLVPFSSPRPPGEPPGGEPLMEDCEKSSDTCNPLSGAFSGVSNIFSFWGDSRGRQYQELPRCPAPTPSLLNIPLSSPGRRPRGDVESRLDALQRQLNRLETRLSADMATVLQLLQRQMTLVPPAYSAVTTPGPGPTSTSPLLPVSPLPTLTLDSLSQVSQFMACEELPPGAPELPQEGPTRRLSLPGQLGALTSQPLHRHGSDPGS
Protocol: The blocking effect of the compound of the present application on hERG potassium current was tested using an automatic patch-clamp on a stable cell line transfected with hERG potassium channels.
The HEK293-hERG stable cell line was subcultured at a density of 1:4 in MEM/EBSS medium (10% FBS, 400 μg/mL G418, 1% MEM non-essential amino acid solution (100×), 1% sodium pyruvate solution) and cultured within 48-72 hours for automatic patch-clamp experiments. On the day of the experiment, the cells were digested with 0.25% trypsin, collected by centrifugation and resuspended with extracellular fluid (140 mM NaCl, 4 mM KCl, 1 mM MgCl2, 2 mM CaCl2, 5 mM MD glucose monohydrate, 10 mM Hepes, pH 7.4, 298 mOsmol) to give a cell suspension. […] The currents at each concentration of the compound and the blank control current were analyzed by HEAK Patchmaster, HEAK EPC 10 patch clamp amplifiers (Nanion) and Pathlinersoftware and data analysis software provided by Pathcontrol HTsoftware.
Blocking effect of the compound of the present application on hERG potassium current was determined by the above experimental method, and the IC50 values were as shown in Table 5.

Compound	IC50 (CYP3A4)	IC50 (hERG potassium channels)
CCCCOc1nc(N)c2[nH]nc(Cc3ccc(CN4CCCC4)cc3)c2n1 [Embodiment 1, 5-Butoxy-3-(4-(pyrrolidin-1-ylmethyl)benzyl)-1H-pyrazolo[4,3-d]pyrimidin-7-amine]	16.7 µM	> 30 µM
CCCCOc1nc(N)c2[nH]cc(Cc3ccc(CN4CCCC4)cc3)c2n1 [Embodiment 21 of WO2016023511]	1.02 µM	3.6 µM
